Assay results reported in patent US12282027B2, “High-throughput NMR approach for in-membrane protein ligand screening” (University of South Florida, priority 2021, dated 2025).

Biological target: T1, A1R receptor (Homo sapiens, UniProt P30542)
T1 construct: FLAG (N); His10 (C); TEV protease cleavage site (N); α-Factor peptide (secretion signal) (N); made in house; host or cells: Pichia pastoris
T1 sequence (P30542 1-326): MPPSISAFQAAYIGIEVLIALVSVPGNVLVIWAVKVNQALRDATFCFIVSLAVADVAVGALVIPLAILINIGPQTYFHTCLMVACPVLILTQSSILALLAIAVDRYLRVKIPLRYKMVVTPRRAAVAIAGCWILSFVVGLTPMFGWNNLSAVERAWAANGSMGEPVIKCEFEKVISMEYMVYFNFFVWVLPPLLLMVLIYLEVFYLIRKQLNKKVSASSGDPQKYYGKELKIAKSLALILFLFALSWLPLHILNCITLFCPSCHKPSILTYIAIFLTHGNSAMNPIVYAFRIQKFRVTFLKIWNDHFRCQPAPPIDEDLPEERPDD
Experiment: In-membrane WaterLOGSY NMR, 10× diluted A1R in yeast cell membrane (YCM)
Assay type: binding
Conditions: 10× diluted A1R in YCM from Pichia pastoris; FIG. 5, FIG. 8
Method: The human A1 receptor and A2A receptor were cloned into pPIC9K with an N-terminal Flag tag and a C-terminal His tag. […] The lysed cell pellets were centrifuged at 9,720×g for 30 min to remove all debris and keep the released membrane fraction parts.
At the end of fermentation, the cell pellets were collected after centrifugation at 4,000×g for 15 min at 4° C. and then washed once with 50 mM HEPES, pH 7.4, 100 mM NaCl buffer. The cell pellets were resuspended into Receptor Lysis Buffer (50 mM HEPES buffer, 10% glycerol, 100 mM NaCl, 2.5 mM EDTA) using the ratio of cell pellets to buffer equal to 1:4. […] The disrupted cell pellets were centrifuged at 9,720×g for 30 min at 4° C. to discard unbroken cells and cellular debris.
NMR samples for membranes typically consisted of 270-300 μL volumes of the cell membrane in 50 mM HEPES buffer, 10% glycerol, 100 mM NaCl, 2.5 mM EDTA, doped with 10% D2O and different concentration ligands prepared in DMSO as needed.
STD and WaterLOGSY experiments were conducted at a ^1H frequency of 600 MHz using Varian Inova spectrometer. 5 mm diameter NMR tubes with a sample volume of 270-300 μL were used in all experiments. Solutions were buffered using a HEPES buffer corrected to pH 7.4 and 10% glycerol. The sample preparation is exemplified as follows, the compound (solution in DMSO-d6), 30 μL D2O was added to 240 μL membrane in an Eppendorf tube. The resulting solution was spun to ensure full mixing and transferred to a 5 mm NMR tube before the run. Both STD and WaterLOGSY spectra were recorded for each sample. WaterLOGSY spectra in the absence of protein receptor were recorded.

Compound	WaterLOGSY NOE signal of the ligand (negative NOE = specific binding)
N[C@@H](Cc1ccc(F)cc1)C(=O)O [4-Fluorophenylalanine]	positive NOEs
CTAP	absence of obvious NOE signals
N[C@@H](Cc1ccc(O)c(F)c1)C(=O)O [3-fluorotyrosine]	absence of obvious NOE signals
